Patent US20260151425A1, “COMPOSITIONS AND METHODS OF USE THEREOF” (SYNEDGEN, INC., priority 2020, published 2026)
Like-named read-outs stand apart in the source and are kept apart here.

Tests used:
[1] = tested on: M. abscessus subsp. bolletii NTM 0003; test: MIC of CF NTM clinical isolates; type: cell-based; details: for CLSI clinical breakpoint category: NTM 0003; for MIC: M. abscessus subsp. bolletii NTM 0003
[2] = tested on: M. abscessus subsp. abscessus NTM 0082; test: MIC of CF NTM clinical isolates; type: cell-based; details: for CLSI clinical breakpoint category: NTM 0082; for MIC: M. abscessus subsp. abscessus NTM 0082
[3] = tested on: MABSC biofilm; test: 2D MBEC checkerboard assay, antibiotic potentiation in biofilm; type: cell-based, Mycobacterium abscessus complex; details: for Fold Change: MBEC alone vs MBEC with PAAG 128 μg/mL; for MBEC: antibiotic alone; for MBEC with PAAG: antibiotic with PAAG at half of its MBEC (128 μg/mL)
Procedure: (§1) PAAG synergy with conventional antibiotics was determined by 2D checkerboard analysis. PAAG's antimicrobial activity and antibiotic potentiation in a biofilm were determined by minimum biofilm eradication concentration (MBEC) and 2D MBEC checkerboard assays to determine antibiotic potentiation with PAAG within a biofilm.

[4] = tested on: M. gordonae NTM 0274; test: MIC of CF NTM clinical isolates; type: cell-based; details: for CLSI clinical breakpoint category: NTM 0274; for MIC: M. gordonae NTM 0274
[5] = tested on: M. avium complex NTM 0813; test: MIC of CF NTM clinical isolates; type: cell-based; details: for CLSI clinical breakpoint category: NTM 0813; for MIC: M. avium complex NTM 0813
[6] = tested on: M. avium complex NTM 0260; test: MIC of CF NTM clinical isolates; type: cell-based; details: for CLSI clinical breakpoint category: NTM 0260; for MIC: M. avium complex NTM 0260
[7] = tested on: MABSC NTM 0082; test: 2D checkerboard analysis, antibiotic MIC with PAAG; type: cell-based, Mycobacterium abscessus complex; details: for Fold Change: MIC alone vs MIC with PAAG 128 μg/mL; for MIC: Mycobacteroides abscessus
Procedure: as §1

[8] = tested on: M. abscessus subsp. abscessus NTM 0079; test: MIC of CF NTM clinical isolates; type: cell-based; details: for CLSI clinical breakpoint category: NTM 0079; for MIC: M. abscessus subsp. abscessus NTM 0079
[9] = tested on: MAC NTM 0260; test: 2D checkerboard analysis, antibiotic MIC with PAAG; type: cell-based, Mycobacterium avium complex; details: for Fold Change: MIC alone vs MIC with PAAG 8 μg/mL; for MIC: Mycobacterium avium
Procedure: as §1

[10] = tested on: MAC biofilm; test: 2D MBEC checkerboard assay, antibiotic potentiation in biofilm; type: cell-based, Mycobacterium avium complex; details: for Fold Change: MBEC alone vs MBEC with PAAG 8 μg/mL; for MBEC: antibiotic alone; for MBEC with PAAG: antibiotic with PAAG at half of its MBEC (8 μg/mL)
Procedure: as §1
In addition, PAAG potentiates antibiotics against NTM in biofilms as measured with minimum biofilm eradication concentration (MBEC) (Table 3).

[11] = tested on: biofilm cultures of Mycobacteria isolates; test: MBEC assay, logarithmic reduction of biofilm growth; type: cell-based; details: 48 hour biofilms treated for an hour; varies from strain to strain
Procedure: (§2) Biofilm cultures of Mycobacteria isolates were grown for 48 hours in static 96-well plates at 37 C on a static incubator. The biofilm cultures were treated using PAAG alone and in formulation with 1.38% glycerol for an hour. The MBEC assay measured the logarithmic reduction in the growth of biofilm by serial dilution and spot plate method. […] The static assay was used to measure the decrease in biofilm density as the dose of PAAG increases by staining each well with crystal violet and measuring the biofilm densities at 590 nm.

[12] = tested on: biofilm cultures of Mycobacteria isolates; test: Static biofilm assay with crystal violet staining; type: cell-based; details: 48 hour biofilms treated for an hour; increasing dose of PAAG
Procedure: as §2
The biofilm biomass was quantified using crystal violet staining in static TCP biofilm assay.

[13] = tested on: MAC cultures; test: Modified time kill analysis with 7-day recovery phase; type: cell-based, Mycobacterium avium complex; details: PAAG 250 μg/mL
Procedure: For MAC cultures, a modified time kill analysis was performed over a period of 21 days and included a 7-day recovery phase in antimicrobial free media post treatment. PAAG treatment led to eradication of MAC cell population within 4 days of treatment.

[14] = tested on: MABSC cultures; test: as above; type: cell-based, Mycobacterium abscessus complex; details: PAAG 250 μg/mL
Procedure: For MABSC cultures, a modified time kill analysis was performed over a period of 12 days and included a 7-day recovery phase in antimicrobial free media post treatment. PAAG treatment led to eradication of MABSC cell population within 48 hours of treatment.

[15] = tested on: MAC persister cells; test: PAAG treatment of antibiotic induced NTM persisters; type: cell-based, Mycobacterium avium complex
Description: (§3) The cultures were then pelleted, washed free of antibiotics and resuspended in broth free of any antimicrobials (i.e., recovery phase).

[16] = tested on: NTM biofilms; test: Optical measurement of biofilm thickness; type: cell-based; details: PAAG at 50, 100 and 200 μg/mL
Description: The biofilm thickness was optically measured assuming the Refractive Index (RI) of the biofilm was equal to water per Bakke & Olsson, et al., (1986).

[17] = tested on: MABSC persister cells; test: PAAG treatment of antibiotic induced NTM persisters; type: cell-based, Mycobacterium abscessus complex
Description: as §3

[18] = Mycobacteroides abscessus, read-out: MIC
[19] = Mycobacterium gordonae, NTM0274, read-out: MIC
[20] = Mycobacterium avium, read-out: MIC
[21] = antibiotic alone, read-out: MIC
[22] = antibiotic with PAAG at half of its MIC (128 μg/mL), read-out: MIC with PAAG
[23] = antibiotic alone, MAC NTM 0260, read-out: MIC

Compound | MIC [1, 18] [µg/mL] | MIC [2, 18] [µg/mL] | Fold Change [3] | MBEC [3] [µg/mL] | MBEC with PAAG [3] [µg/mL] | MIC [4, 19] [µg/mL] | MIC [5, 20] [µg/mL] | MIC [6, 20] [µg/mL] | Fold Change [7] | MIC [7, 21] [µg/mL] | MIC [7, 22] [µg/mL] | MIC [8, 18] [µg/mL] | Fold Change ([9]; MAC NTM 0260) | MIC [9, 23] [µg/mL] | MIC ([9]; read-out: MIC with PAAG) [µg/mL] | Fold Change [10] | MBEC [10] [µg/mL] | MBEC with PAAG [10] [µg/mL] | further results
NCC[C@H](O)C(=O)N[C@@H]1C[C@H](N)[C@@H](O[C@H]2O[C@H](CN)[C@@H](O)[C@H](O)[C@H]2O)[C@H](O)[C@H]1O[C@H]1O[C@H](CO)[C@@H](O)[C@H](N)[C@H]1O [Amikacin] | 4 | 8 | >512 | >1024 | 2 | < 0.0625 | 2 | 2 | 533 | 32 | 0.06 | 8 | – | – | – | – | – | – | CLSI clinical breakpoint category ([1]; Amikacin breakpoints): (S) (≤16 μg/mL (S)); CLSI clinical breakpoint category ([2]; Amikacin breakpoints): (R) (≥64 μg/mL (R) for Amikacin); CLSI clinical breakpoint category ([4]; Amikacin breakpoints): (S) (≤16 μg/mL (S)); CLSI clinical breakpoint category ([5]; Amikacin breakpoints): (S) (≤16 μg/mL (S)); CLSI clinical breakpoint category ([6]; Amikacin breakpoints): (S) (≤16 μg/mL (S)); CLSI clinical breakpoint category ([8]; Amikacin breakpoints): (R) (≥64 μg/mL (R) for Amikacin)
CC[C@H]1OC(=O)[C@H](C)[C@@H](O[C@H]2C[C@@](C)(OC)[C@@H](O)[C@H](C)O2)[C@H](C)[C@@H](O[C@@H]2O[C@H](C)C[C@H](N(C)C)[C@H]2O)[C@](C)(O)C[C@@H](C)CN(C)[C@H](C)[C@@H](O)[C@]1(C)O [Azithromycin] | 32 | 32 | – | – | – | 2 | 2 | 2 | – | – | – | 32 | 4 | 2 | 0.5 | 8 | 8 | 1 | CLSI clinical breakpoint category ([1]; Azithromycin breakpoints): (R) (≥8 μg/mL (R)); CLSI clinical breakpoint category ([2]; Azithromycin breakpoints): (R) (≥8 μg/mL (R)); CLSI clinical breakpoint category ([4]; Azithromycin breakpoints): (I) (4 μg/mL (I)); CLSI clinical breakpoint category ([5]; Azithromycin breakpoints): (I) (4 μg/mL (I)); CLSI clinical breakpoint category ([6]; Azithromycin breakpoints): (I) (4 μg/mL (I)); CLSI clinical breakpoint category ([8]; Azithromycin breakpoints): (R) (≥8 μg/mL (R))
O=C(O)c1cn(C2CC2)c2cc(N3CCNCC3)c(F)cc2c1=O [Ciprofloxacin] | – | – | – | >1024 | – | – | – | – | – | – | – | – | – | – | – | – | – | – | –
CC[C@@H](CO)NCCN[C@@H](CC)CO [Ethambutol] | 8 | 32 | >512 | >1024 | 2 | 2 | 2 | 2 | 128 | 32 | 0.25 | 32 | 2 | 2 | 1 | >32 | >8 | <0.25 | CLSI clinical breakpoint category ([1]; Ethambutol breakpoints): R (≥2 μg/mL (R) for Ethambutol); CLSI clinical breakpoint category ([2]; Ethambutol breakpoints): R (≥2 μg/mL (R) for Ethambutol); CLSI clinical breakpoint category ([4]; Ethambutol breakpoints): R (≥2 μg/mL (R) for Ethambutol); CLSI clinical breakpoint category ([5]; Ethambutol breakpoints): R (≥2 μg/mL (R) for Ethambutol); CLSI clinical breakpoint category ([6]; Ethambutol breakpoints): R (≥2 μg/mL (R) for Ethambutol); CLSI clinical breakpoint category ([8]; Ethambutol breakpoints): R (≥2 μg/mL (R) for Ethambutol)
CO[C@H]1/C=C/O[C@@]2(C)Oc3c(C)c(O)c4c(O)c(c(/C=N/N5CCN(C)CC5)c(O)c4c3C2=O)NC(=O)/C(C)=C\C=C\[C@H](C)[C@H](O)[C@@H](C)[C@@H](O)[C@@H](C)[C@H](OC(C)=O)[C@@H]1C [Rifampicin] | 8 | 2 | >512 | >1024 | 2 | 2 | 4 | 4 | 21 | 2 | 0.06 | 2 | 4 | 4 | 1 | >32 | 8 | <0.25 | CLSI clinical breakpoint category ([1]; Rifampicin breakpoints): R (≥1 μg/mL (R) for Rifampicin); CLSI clinical breakpoint category ([2]; Rifampicin breakpoints): R (≥1 μg/mL (R) for Rifampicin); CLSI clinical breakpoint category ([4]; Rifampicin breakpoints): R (≥1 μg/mL (R) for Rifampicin); CLSI clinical breakpoint category ([5]; Rifampicin breakpoints): R (≥1 μg/mL (R) for Rifampicin); CLSI clinical breakpoint category ([6]; Rifampicin breakpoints): R (≥1 μg/mL (R) for Rifampicin); CLSI clinical breakpoint category ([8]; Rifampicin breakpoints): R (≥1 μg/mL (R) for Rifampicin)
poly(acetyl, arginyl) glucosamine [PAAG] | – | – | – | – | – | – | – | – | – | – | – | – | – | – | – | – | – | – | log reduction in biofilm compared to the control [11]: two to three log reduction; biofilm density (crystal violet, 590 nm) [12]: dose dependent reduction in the density of the bacteria; MIC [1]: 128 µg/mL; time to eradication of MAC cell population ([13]; time kill over 21 days): ≤ 4 days; killing outcome ([13]; slow growing MAC): complete eradication; MIC [2]: 250 µg/mL; time to eradication of MABSC cell population ([14]; time kill over 12 days): ≤ 48 h; killing outcome ([14]; rapid growing MABSC): complete eradication; MIC [4]: 32 µg/mL; MIC [5]: 16 µg/mL; MIC [6]: 16 µg/mL; MIC [8]: 250 µg/mL; CFU/mL after PAAG treatment of persisters ([15]; MAC cultures surviving antibiotic treatment, PAAG for 10 days): 0 CFU/mL; regrowth of persisters after PAAG treatment ([15]; MAC, recovery in fresh broth 24 days): none of the persisters in either strain showed regrowth; biofilm thickness [16]: reduction in BCC biofilm thickness in a dose dependent manner; bacterial viability at depth in biofilm ([16]; depths >5-10 μm): significantly decreased bacterial viability; CFU/mL after PAAG treatment of persisters ([17]; MABSC cultures surviving antibiotic treatment, PAAG for 4 days): 0 CFU/mL; regrowth of persisters after PAAG treatment ([17]; MABSC, recovery in fresh broth 12 days): none of the persisters in either strain showed regrowth
